# Source: patent publication US8883793B2, “Tubulin inhibitors and methods of using the same” (Development Center for Biotechnology, priority 2010, dated 2014)
# What was measured:
# [1] = test system: KB cell; experiment: MTS assay, growth inhibition of KB cells; type: cell-based; conditions: Homo sapiens, at 10 μM concentration, incubated for 72 h, read-out: Inhibition rate (%) (growth inhibition rate of MTS assay)
# In short: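 KB cells were allowed 24 h to attach before a 72 h exposure to compound at 10 μM. Viability was measured by MTS/PMS reduction, with absorbance read at 490 nm after 3 h. Values are reported as percent growth inhibition.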
# [2] = test system: porcine brain tubulin; experiment: Tubulin polymerization assay; type: biochemical; conditions: at 10 μM concentration
# Procedure: In vitro tubulin polymerization assay was performed by using the Tubulin Polymerization Assay Kit (Cytoskeleton, Inc., Denver, Colo.) in a 96-well format, which used the polymerization of porcine brain tubulin in vitro in the presence of varying concentrations of the test compounds. Fluorescence measurements were obtained at 1-minute intervals over a 31-minute period. Fluorescent measurements were performed using excitation at 365 nm, and emission was measured at 440 nm using a Packard Fusion Alpha Microplate Analyzer. Data were analyzed as relative fluorescent units by GraphPad Prism 5 Demo.
# [3] = test system: biotinylated tubulin; experiment: Colchicine competitive-binding assay; conditions: at 10 μM concentration, 3H-colchicine; for binding rate (%) (colchicine competitive-binding): left column pair of Table 7; for Inhibition rate (%) (colchicine competitive-binding): right column pair of Table 7
# Procedure: The colchicine competitive-binding assay was done by using the Colchicine Site competitive Assay Kit (Cytoskeleton, Inc.), streptavidin-coated yttrium SPA beads(GE Healthcare, Inc.), and ^3H-colchicine(PerkinElmer, Inc.). Briefly, the binding mixture includes 1 μL^3H-labeled ligand (specific activity […]), and 1 μg biotinylated tubulin and 88 μg SPA beads in 200 μL assay buffer. The test compound and ^3H-labeled ligand were added before tubulin. After incubation at 37° C. for 2 hours, the SPA beads were allowed to settle down for 24 hours at room temperature, and scintillation counting was done on the TopCount Microplate Scintillation Counter.
structure (smiles),measurement,setting,value
"COc1ccc(Sc2cnc(NC(=O)CCc3ccccc3)s2)cc1 [Compound 69, N-[5-(4-Methoxy-phenylsulfanyl)-thiazol-2-yl]-3-phenyl-propionamide]",inhibition at 10 µM,[1],87.6%
same,Inhibition rate (%) of tubulin polymerization,[2],50.5%
same,binding rate (%) (colchicine competitive-binding),[3],85.2%
"COc1ccc(Sc2cnc(NC(=O)CCc3ccc(C)o3)s2)cc1 [Compound 71, N-[5-(4-Methoxy-phenylsulfanyl)-thiazol-2-yl]-3-(5-methyl-furan-2-yl)-propionamide]",inhibition at 10 µM,[1],94.4%
same,Inhibition rate (%) of tubulin polymerization,[2],60.1%
same,binding rate (%) (colchicine competitive-binding),[3],86.0%
"Cc1ccc(CCC(=O)Nc2ccc(-n3ccnc3)cn2)o1 [Compound 77, N-(5-Imidazol-1-yl-pyridin-2-yl)-3-(5-methyl-furan-2-yl)-propionamide]",inhibition at 10 µM,[1],87.3%
same,Inhibition rate (%) of tubulin polymerization,[2],60.8%
same,Inhibition rate (%) (colchicine competitive-binding),[3],99.8%
"O=C(CCc1ccccc1)Nc1ccc(-n2ccc3ccccc32)cn1 [Compound 79, N-(5-Indol-1-yl-pyridin-2-yl)-3-phenyl-propionamide]",inhibition at 10 µM,[1],73.7%
same,Inhibition rate (%) of tubulin polymerization,[2],53.2%
same,Inhibition rate (%) (colchicine competitive-binding),[3],90.0%
"COc1ccc(Sc2ccc(NC(=O)CCc3ccc(C)o3)nc2)cc1 [Compound 83, N-[5-(4-Methoxy-phenylsulfanyl)-pyridin-2-yl]-3-(5-methyl-furan-2-yl)-propionamide]",inhibition at 10 µM,[1],95.2%
same,Inhibition rate (%) of tubulin polymerization,[2],64.7%
same,Inhibition rate (%) (colchicine competitive-binding),[3],91.9%
"COc1ccc(Sc2ccc(NC(=O)CCc3ccccc3)nc2)cc1 [Compound 84, N-[5-(4-Methoxy-phenylsulfanyl)-pyridin-2-yl]-3-phenyl-propionamide]",inhibition at 10 µM,[1],94.7%
same,Inhibition rate (%) of tubulin polymerization,[2],50.3%
same,Inhibition rate (%) (colchicine competitive-binding),[3],88.0%
"Cc1ccc(CCC(=O)Nc2ccc(SCc3ccccc3)cn2)o1 [Compound 85, N-(5-Benzylsulfanyl-pyridin-2-yl)-3-(5-methyl-furan-2-yl)-propionamide]",inhibition at 10 µM,[1],76.8%
same,Inhibition rate (%) of tubulin polymerization,[2],54.0%
same,Inhibition rate (%) (colchicine competitive-binding),[3],92.6%
"Cc1ccc(CCC(=O)Nc2ncc(-c3ccccc3)cn2)o1 [Compound 92, 3-(5-Methyl-furan-2-yl)-N-(5-phenyl-pyrimidin-2-yl)-propionamide]",inhibition at 10 µM,[1],97.1%
same,Inhibition rate (%) of tubulin polymerization,[2],74.0%
same,Inhibition rate (%) (colchicine competitive-binding),[3],94.7%
"O=C(CCc1ccccc1)Nc1ncc(-c2ccccc2)cn1 [Compound 94, 3-Phenyl-N-(5-phenyl-pyrimidin-2-yl)-propionamide]",inhibition at 10 µM,[1],97.4%
same,Inhibition rate (%) of tubulin polymerization,[2],55.2%
same,Inhibition rate (%) (colchicine competitive-binding),[3],82.9%
"O=C(CCc1ccccc1)Nc1ncc(-c2ccc(F)cc2)cn1 [Compound 99, N-[5-(4-Fluoro-phenyl)-pyrimidin-2-yl]-3-phenyl-propionamide]",inhibition at 10 µM,[1],95.8%
same,Inhibition rate (%) of tubulin polymerization,[2],55.8%
same,Inhibition rate (%) (colchicine competitive-binding),[3],78.3%
"COc1cccc(-c2cnc(NC(=O)CCc3ccc(C)o3)nc2)c1OC [Compound 100, N-[5-(2,3-Dimethoxy-phenyl)-pyrimidin-2-yl]-3-(5-methyl-furan-2-yl)-propionamide]",inhibition at 10 µM,[1],97.8%
same,Inhibition rate (%) of tubulin polymerization,[2],84.3%
same,Inhibition rate (%) (colchicine competitive-binding),[3],83.4%
"COc1cccc(-c2cnc(NC(=O)CCc3ccccc3)nc2)c1OC [Compound 102, N-[5-(2,3-Dimethoxy-phenyl)-pyrimidin-2-yl]-3-phenyl-propionamide]",inhibition at 10 µM,[1],94.5%
same,Inhibition rate (%) of tubulin polymerization,[2],58.6%
same,Inhibition rate (%) (colchicine competitive-binding),[3],59.2%
"Cc1ccc(CCC(=O)Nc2ncc(-c3ccc(F)cc3)cn2)o1 [Compound 105, N-[5-(4-Fluoro-phenyl)-pyrimidin-2-yl]-3-(5-methyl-furan-2-yl)-propionamide]",inhibition at 10 µM,[1],96.7%
same,Inhibition rate (%) of tubulin polymerization,[2],72.2%
same,Inhibition rate (%) (colchicine competitive-binding),[3],99.3%
